Experimental data as given in patent US20260337245A1, “POLYPEPTIDE OR ANALOG THEREOF AND USE THEREOF” (Shenzhen Bay Laboratory, priority 2024, published 2026).
Starred links: 1 amine or outer side, 2 acyl side, 3 side chain; linkers in the order of their positions; H or OH if unused. Positions of bridges follow the written chain, without caps; N, C: chain ends. Non-standard residues stand in square brackets, D forms with d. Residues, ends and D or L forms follow the SMILES beside them. X1 = O=C(O)CCCCCCCCCCCCCCCCCCC(=O)N[C@@H](CCCCNC(=O)COCCOCCNC(=O)COCCOCCNC(=O)CCC(=O)N(CCNC(=O)C[*:1])CCNC(=O)C[*:2])C(=O)O; NMeR = CN[C@@H](CCCNC(=N)N)C(=O)O; Hyp = O=C(O)[C@@H]1C[C@@H](O)CN1; αMeK = C[C@](N)(CCCCN)C(=O)O; Aib = CC(C)(N)C(=O)O

Key:
AMY3R = biological target: T1, AMY3R (Homo sapiens, UniProt P30988); experiment: HTRF cAMP assay, AMY3R; format: cell-based; settings: HEK293/pGM-CREB-L-Luc/AMY3R pool, read-out: IC50 of receptor AMY3R
T1 construct: expressed in transfected cells
T1 sequence (P30988 25-474): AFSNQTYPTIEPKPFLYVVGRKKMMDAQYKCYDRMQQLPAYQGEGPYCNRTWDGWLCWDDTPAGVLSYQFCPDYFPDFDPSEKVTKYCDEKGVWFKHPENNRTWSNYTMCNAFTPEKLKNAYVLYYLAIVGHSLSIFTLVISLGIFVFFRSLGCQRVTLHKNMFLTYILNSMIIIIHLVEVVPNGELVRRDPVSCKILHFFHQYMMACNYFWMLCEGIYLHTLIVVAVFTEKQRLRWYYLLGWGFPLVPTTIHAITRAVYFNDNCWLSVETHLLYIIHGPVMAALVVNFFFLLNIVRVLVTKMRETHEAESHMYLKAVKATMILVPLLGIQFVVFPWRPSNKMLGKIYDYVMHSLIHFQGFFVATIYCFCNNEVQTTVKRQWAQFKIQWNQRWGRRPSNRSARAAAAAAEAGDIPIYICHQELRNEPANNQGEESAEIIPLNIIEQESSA
T1 sequence (O60896 24-148 partner): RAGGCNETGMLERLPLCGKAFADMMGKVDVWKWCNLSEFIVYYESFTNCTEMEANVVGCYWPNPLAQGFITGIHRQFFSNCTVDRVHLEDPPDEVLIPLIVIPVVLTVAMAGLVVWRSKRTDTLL
Source text: (§1) 2. The polypeptide derivatives prepared in Example 1 and Example 2 of the present disclosure can bind to the target AMYR and CTR receptors on the cell membrane, activate the receptors and release cAMP. Therefore, the activity of the analyte can be determined by using an HTRF (homogeneous time-resolved fluorescence) method and using a cAMP detection kit. The specific steps were as follows:
(§2) A stable transfected cell line of HEK293/pGM-CREB-L-Luc/AMY3R pool and HEK293/pGM-CREB-L-Luc/CTR pool was constructed. The polypeptide derivatives (i.e., AMY-001 to AMY-041) prepared in Examples 1 and 2 were subjected to 5-fold serial dilution from a maximum of 1000 nM to prepare a dilution series containing 8 to 11 concentration gradients. Cagrilintide and sCT were selected as positive controls for testing, and a dilution series was prepared according to the same method for testing. The test cell lines were selected and treated with cAMP-specific trypsin for digestion, and then suspended with 3 mL of serum-free DMEM medium by pipetting, and the cells were counted. 5 μL of IBMX (prepared with serum-free DMEM medium, 0.5 mM) and test cells (5 μL/7500 cells/well) were sequentially added to a 384-well plate, incubated under the conditions of 37° C., 5% CO2 for 30 minutes, then added with cAMP-d2 (5 μL, 1×) and Anti-cAMP-Cryptate (5 μL, 1×) and placed at room temperature for 1 hour. A HTRF value was determined by a chemiluminescence microplate reader, and the results were recorded. An activation curve was plotted using GraphPad Prism software to calculate an IC50 value of each polypeptide derivative. […] The IC50 values of some polypeptides were exemplarily shown in this example, see Table 3, FIG. 2 and FIG. 3 for details.

CTR = biological target: T2, CTR (Homo sapiens, UniProt P30988); experiment: HTRF cAMP assay, CTR; format: cell-based; settings: HEK293/pGM-CREB-L-Luc/CTR pool, read-out: IC50 of receptor CTR
T2 construct: expressed in transfected cells
T2 sequence (P30988 25-474): T1 sequence (P30988 25-474)
Source text: as §1, §2

[1] = Pharmacokinetic evaluation in SD rats; format: in vivo, male SD rat; settings: plasma, rat
Method: 1. The pharmacokinetic behaviors of the polypeptide derivatives (i.e., AMY-001 to AMY-041) prepared in Example 1 and Example 2 in SD rats were tested.
Each polypeptide derivative (i.e., AMY-001 to AMY-041) was administered to male SD rat as a single injection via subcutaneous injection (SC, 3 mg/kg, with PBS as a medicament vehicle, a concentration of 1.5 mg/mL, and an administration volume of 2 mL) and intravenous injection (IV, 1 mg/kg, with PBS as a medicament vehicle, a concentration of 0.5 mg/mL, and an administration volume of 2 mL), respectively. After administration, whole blood samples were respectively collected from the jugular vein or other appropriate veins at selected time points. 0.2 mL of blood was collected and placed in a labeled EDTA-K2 anticoagulant tube. The tube was gently inverted up and down to ensure thorough mixing of the anticoagulant (EDTA-K2) with the blood, immediately placed on wet ice and centrifuged as soon as possible to separate plasma, and the centrifugation conditions were set to 4° C., 6800 g, and 6 minutes. Plasma samples were stored in a refrigerator at a temperature not exceeding −20° C. until subsequent analysis.
(§3) Under yellow light conditions in an ice water bath, (1) except for the blank sample, 300 μL of precipitant containing internal standard was added to a 96-well plate containing 20 μL of a standard curve sample, a quality control sample or an unknown sample; 300 μL of acetonitrile was added to the blank sample; (2) vortex mixing; (3) centrifugation; (4) 150 μL of supernatant was taken and added into a new 96-well plate, and then mixed well with 150 μL of ultrapure water; and (5) The above samples were quantitatively analyzed by using LC-MS analysis. Gradient elution was performed on a XB—C18 chromatographic column (2.1*100 mm, 3 μm), with the mobile phase as follows: mobile phase A=0.1% (volume percentage, v/v) formic acid-water; and mobile phase B=acetonitrile. Pharmacokinetic parameters were calculated using Phoenix WinNonlin software.

[2] = Pharmacokinetic evaluation in Cynomolgus macaques; format: in vivo, adult male Cynomolgus macaques; settings: cynomolgus monkey, plasma, 0.2 mg/kg
Method: 2. The pharmacokinetic behaviors of the polypeptide derivatives (i.e., AMY-001 to AMY-041) prepared in Example 1 and Example 2 in Cynomolgus macaques were tested.
Each polypeptide derivatives (i.e., AMY-001 to AMY-041) was respectively administered to adult male Cynomolgus macaques as a single injection via subcutaneous injection (S.C., 0.2 mg/kg, with PBS as a medicament vehicle, a concentration of 0.2 mg/mL, […], with PBS as a medicament vehicle, a concentration of 0.2 mg/mL, and an administration volume of 1 mL), respectively. After administration, whole blood samples were respectively collected from the jugular vein or other appropriate veins at selected time points. 0.2 mL of blood was collected and placed in a labeled EDTA-K2 anticoagulant tube. The tube was gently inverted up and down to ensure thorough mixing of the anticoagulant (EDTA-K2) with the blood, immediately placed on wet ice and centrifuged as soon as possible to separate plasma, and the centrifugation conditions were set to 4° C., 6800 g, and 6 minutes. Plasma samples were stored in a refrigerator at a temperature not exceeding −20° C. for subsequent analysis.
as §3, with “the” for “The”, “A=0.1%” for “A=0.1% (volume percentage, v/v)”

[3] = background, in words; cited from earlier work
[4] = background, in words; cited from earlier work; remark: listed apart in the source

Row | EC50 (AMY3R) [pM] | EC50 (CTR) [pM] | AUC(0-inf) ([1]; 1 mg/kg, IV (1 mpk)) [µg·h/mL] | clearance ([1]; 1 mg/kg, IV (1 mpk)) [mL/h/kg] | half-life ([1]; 1 mg/kg, IV (1 mpk)) [h] | AUC(0-inf) ([1]; 3 mg/kg, SC (3 mpk)) [µg·h/mL] | Cmax ([1]; 3 mg/kg, SC (3 mpk)) [ng/mL] | Tmax ([1]; 3 mg/kg, SC (3 mpk)) [h] | bioavailability ([1]; 3 mg/kg, SC (3 mpk)) [%] | half-life ([1]; 3 mg/kg, SC (3 mpk)) [h] | AUC(0-inf) ([2]; IV (0.2 mpk)) [µg·h/mL] | clearance ([2]; IV (0.2 mpk)) [mL/h/kg] | half-life ([2]; IV (0.2 mpk)) [h] | AUC(0-inf) ([2]; SC (0.2 mpk)) [µg·h/mL] | Cmax ([2]; SC (0.2 mpk)) [ng/mL] | Tmax ([2]; SC (0.2 mpk)) [h] | bioavailability ([2]; SC (0.2 mpk)) [%] | half-life ([2]; SC (0.2 mpk)) [h] | SMILES | stability [3] | in-vivo half-life [4]
1 | 4.8 | 12.2 | 143 | 7.02 | 15.5 | 283 | 6830 | 8 | 65.9 | 15.6 | – | – | – | – | – | – | – | – | CC(=O)N[C@@H](C)C(=O)N[C@@H](CO)C(=O)N[C@@H](Cc1c[nH]cn1)C(=O)N[C@@H](CC(C)C)C(=O)N[C@@H](CO)C(=O)N[C@H](C(=O)N[C@@H](C)C(=O)N[C@H]1CSCC(=O)NCCN(C(=O)CCC(=O)NCCOCCOCC(=O)NCCOCCOCC(=O)NCCCC[C@H](NC(=O)CCCCCCCCCCCCCCCCCCC(=O)O)C(=O)O)CCNC(=O)CSC[C@@H](C(=O)N[C@@H](CC(C)C)C(=O)N[C@@H](Cc2c[nH]cn2)C(=O)N[C@@](C)(CCCCN)C(=O)N[C@@H](CC(C)C)C(=O)NC(C)(C)C(=O)N[C@@H](CC(=O)O)C(=O)N[C@@H](Cc2ccc(O)cc2)C(=O)N2CCC[C@H]2C(=O)N(C)[C@@H](CCCNC(=N)N)C(=O)N[C@H](C(=O)N[C@@H](CC(=O)O)C(=O)N[C@H](C(=O)NCC(=O)N[C@@H](C)C(=O)NCC(=O)N[C@@H](CO)C(=O)N2C[C@H](O)C[C@H]2C(N)=O)C(C)C)[C@@H](C)O)NC(=O)[C@H](C)NC(=O)[C@H](CO)NC(=O)[C@H](CC(C)C)NC(=O)[C@H](CCCNC(=N)N)NC(=O)CNC(=O)[C@H](CC(C)C)NC1=O)[C@@H](C)O [AMY-011, Ac-ASHLSTACLGRLSACLH-(αMeK)-L-Aib-DYP-(N-Me-R)-TDVGAGS-Hyp-NH2] (Ac-ASHLSTACLGRLSACLH[αMeK]L[Aib]DYP[NMeR]TDVGAGS[Hyp]-NH2; linker 8-15 via X1) | – | –
2 | – | – | 286 | 3.52 | 20.5 | 567 | 11100 | 24 | 66.1 | 20.6 | 942 | 0.217 | 146 | 514 | 2260 | 24 | 54.5 | 143 | CC(=O)N[C@@H](C)C(=O)N[C@@H](CO)C(=O)N[C@@H](Cc1c[nH]cn1)C(=O)N[C@@H](CC(C)C)C(=O)N[C@@H](CO)C(=O)N[C@H](C(=O)N[C@@H](C)C(=O)N[C@H]1CSCC(=O)NCCN(C(=O)CCC(=O)NCCOCCOCC(=O)NCCOCCOCC(=O)NCCCC[C@H](NC(=O)CCCCCCCCCCCCCCCCCCC(=O)O)C(=O)O)CCNC(=O)CSC[C@@H](C(=O)N[C@@H](CC(C)C)C(=O)N[C@@H](Cc2c[nH]cn2)C(=O)N[C@@](C)(CCCCN)C(=O)N[C@@H](CC(C)C)C(=O)NC(C)(C)C(=O)N[C@@H](CC(=O)O)C(=O)N[C@@H](Cc2ccc(O)cc2)C(=O)N2CCC[C@H]2C(=O)N[C@@H](CCC(N)=O)C(=O)N[C@H](C(=O)N[C@@H](CC(=O)O)C(=O)N[C@H](C(=O)NCC(=O)N[C@@H](C)C(=O)NCC(=O)N[C@@H](CO)C(=O)N2C[C@H](O)C[C@H]2C(N)=O)C(C)C)[C@@H](C)O)NC(=O)[C@H](C)NC(=O)[C@H](CO)NC(=O)[C@H](CC(C)C)NC(=O)[C@H](CCCNC(=N)N)NC(=O)CNC(=O)[C@H](CC(C)C)NC1=O)[C@@H](C)O [AMY-015, Ac-ASHLSTACLGRLSACLH-(αMeK)-L-Aib-DYPQTDVGAGS-Hyp-NH2] (Ac-ASHLSTACLGRLSACLH[αMeK]L[Aib]DYPQTDVGAGS[Hyp]-NH2; linker 8-15 via X1) | – | –
3 | – | – | – | – | – | – | – | – | – | – | – | – | – | – | – | – | – | – | CC(C)C[C@H](NC(=O)[C@H](CCCCN)NC(=O)CNC(=O)[C@H](CC(C)C)NC(=O)[C@@H](NC(=O)[C@@H]1CSSC[C@H](N)C(=O)N[C@@H](CO)C(=O)N[C@@H](CC(N)=O)C(=O)N[C@@H](CC(C)C)C(=O)N[C@@H](CO)C(=O)N[C@@H]([C@@H](C)O)C(=O)N1)C(C)C)C(=O)N[C@@H](CO)C(=O)N[C@@H](CCC(N)=O)C(=O)N[C@@H](CCC(=O)O)C(=O)N[C@@H](CC(C)C)C(=O)N[C@@H](Cc1c[nH]cn1)C(=O)N[C@@H](CCCCN)C(=O)N[C@@H](CC(C)C)C(=O)N[C@@H](CCC(N)=O)C(=O)N[C@H](C(=O)N[C@@H](Cc1ccc(O)cc1)C(=O)N1CCC[C@H]1C(=O)N[C@@H](CCCNC(=N)N)C(=O)N[C@H](C(=O)N[C@@H](CC(N)=O)C(=O)N[C@H](C(=O)NCC(=O)N[C@@H](CO)C(=O)NCC(=O)N[C@H](C(=O)N1CCC[C@H]1C(N)=O)[C@@H](C)O)[C@@H](C)O)[C@@H](C)O)[C@@H](C)O [sCT] | poor stability | short in-vivo half-life
